Results: publication PMC10528180 (Foods, 2023)
Like-named read-outs stand apart in the source and are kept apart here.

What was measured:
α-amylase = biological target: T1, α-amylase (Sus scrofa, UniProt P00690); test: In vitro α-amylase activity assay (G3-CNP, absorbance 405 nm); format: biochemical, porcine; conditions: for inhibition at 500 µM: read-out: α-Amylase inhibition
T1 construct: α-amylase (EC 232-565-6, powder, ≥5 units/mg solid) isolated from porcine pancreas; purchased Sigma-Aldrich Co; host or cells: porcine pancreas
T1 sequence (P00690 16-511): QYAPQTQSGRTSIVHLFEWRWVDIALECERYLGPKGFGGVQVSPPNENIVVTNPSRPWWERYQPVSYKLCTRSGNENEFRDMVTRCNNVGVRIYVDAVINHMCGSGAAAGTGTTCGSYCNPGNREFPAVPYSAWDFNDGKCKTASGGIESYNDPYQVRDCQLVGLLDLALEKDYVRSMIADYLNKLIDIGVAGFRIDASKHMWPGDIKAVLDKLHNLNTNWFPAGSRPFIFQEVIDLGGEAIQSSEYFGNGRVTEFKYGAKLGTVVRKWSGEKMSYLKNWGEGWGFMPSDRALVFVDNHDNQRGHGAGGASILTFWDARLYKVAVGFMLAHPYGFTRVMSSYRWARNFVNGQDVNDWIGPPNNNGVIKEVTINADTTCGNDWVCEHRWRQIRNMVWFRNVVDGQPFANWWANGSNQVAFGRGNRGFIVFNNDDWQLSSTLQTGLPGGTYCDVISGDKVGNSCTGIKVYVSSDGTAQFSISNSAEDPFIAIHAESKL
Procedure: (§1) The other reagents used in this experiment are analytically pure reagents purchased from Sigma-Aldrich Co. (St. Louis, MI, USA) unless specified otherwise.
(§2) The in vitro […] activity assay was determined using spectrophotometry, as previously reported, with only minor modifications. A total of 5 U/mL of α-amylase and the appropriate quantity of 2-chloro-4-nitrophenyl α-D-maltotrioside (G3-CNP) were produced. […] Gradient dilution with a phosphate-buffered solution was used to create sample solutions of various concentrations. First, different concentrations of compound (10 μL), an enzyme solution (40 μL), and potassium phosphate buffer (100 μL) were pre-incubated in 96-well plates at 37 °C for 10 min.
(§3) The enzymatic inhibitory activity of the tested compounds was calculated using the following formula: Inhibition %=[(Abs control−Abs sample)/Abs control]×100
(§4) The IC50 values of the tested compounds were calculated using nonlinear fitting (logit method).

α-glucosidase = biological target: T2, α-glucosidase (Saccharomyces cerevisiae, UniProt P53341); test: biochemical; conditions: for inhibition at 500 µM: read-out: α-Glucosidase inhibition
T2 construct: purchased Sigma-Aldrich Co
Procedure: as §1
as §2, with “In phosphate buffer with a pH” for “A total”, “6.8, 0.5” for “5”, “α-glucosidase” for “α-amylase”, “p-nitrophenyl-D-glucopyranoside (pNGP)” for “2-chloro-4-nitrophenyl α-D-maltotrioside (G3-CNP)”
as §3, §4

db/db mice = test: Postprandial blood glucose level measurement after oral starch load; format: in vivo; conditions: 100 mg/kg, oral starch 2 g/kg
Procedure: db/db mice and C57BL/6J mice were purchased f0rom Beijing Zhishan Health Medical Research Institute. The animal testing procedure was approved by Beijing Huayuan Times Technology Co., Ltd Ethics Committee on the Management and Welfare of Laboratory Animals. (Ethics review batch number: HYSD2023-04) and strictly follows the local and national codes of ethics. All mice were placed in a control chamber at 25 °C and 60% relative humidity with a light/dark period of 12/12 h. During this period, all mice had free access to normal feed and water. […] All mice were given starch (2 g/kg) orally 60 min after treatment. Blood samples were taken from the caudal vein and blood glucose was measured after 0, 30, 60, and 120 min. The area under the curve (AUC) was calculated using the trapezoidal rule.

[1] = read-out: α-amylase inhibition IC50±SEM
[2] = read-out: α-glucosidase inhibition IC50±SEM

T2 sequence (P53341 whole entry): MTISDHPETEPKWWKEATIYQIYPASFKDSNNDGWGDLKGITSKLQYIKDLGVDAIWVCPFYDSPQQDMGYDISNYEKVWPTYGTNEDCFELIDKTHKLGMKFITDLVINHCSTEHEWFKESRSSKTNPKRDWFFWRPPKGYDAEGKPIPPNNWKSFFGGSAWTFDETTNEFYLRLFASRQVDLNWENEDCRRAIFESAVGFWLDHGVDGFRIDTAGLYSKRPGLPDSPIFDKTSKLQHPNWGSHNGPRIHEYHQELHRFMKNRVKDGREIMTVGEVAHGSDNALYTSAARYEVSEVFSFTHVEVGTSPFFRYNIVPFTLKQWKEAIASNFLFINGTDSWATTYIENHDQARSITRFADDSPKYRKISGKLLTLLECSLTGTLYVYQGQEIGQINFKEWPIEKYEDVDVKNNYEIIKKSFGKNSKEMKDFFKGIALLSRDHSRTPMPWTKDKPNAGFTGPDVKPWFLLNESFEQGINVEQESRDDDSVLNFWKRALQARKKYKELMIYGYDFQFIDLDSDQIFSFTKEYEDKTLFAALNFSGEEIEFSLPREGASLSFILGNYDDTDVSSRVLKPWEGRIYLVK

In the case of `O=c1cc(-c2ccc(O)cc2)oc2cc(O[C@@H]3O[C@H](CO)[C@@H](O)[C@H](O)[C@H]3O)cc(O)c12` [Apigetrin], the inhibition at 500 µM (α-amylase; at 500 µM) is reported as 12%, the IC50 (α-glucosidase) is reported as 187 ± 6.93 µM and the “selectivity for glucosidase over α-amylase among the 12 compounds” value (α-glucosidase; inhibition at 500 µM of both enzymes compared) is reported as “selective inhibition of glucosidase”. For the same molecule, the inhibition at 500 µM (α-glucosidase) was 74%.

`O=c1c(O[C@@H]2O[C@@H](CO)[C@H](O)[C@H]2O)c(-c2ccc(O)c(O)c2)oc2cc(O)cc(O)c12` [Avicularin] showed an IC50 (α-amylase) greater than 500 µM, an inhibition at 500 µM (α-amylase; at 500 µM) of 19% and an IC50 (α-glucosidase) greater than 500 µM. It also gave an inhibition at 500 µM (α-glucosidase) of 33%.

In the case of `O=c1c(O[C@@H]2O[C@H](CO)[C@H](O)[C@H](O)[C@H]2O)c(-c2ccc(O)cc2)oc2cc(O)cc(O)c12` [Trifolin], the inhibition at 500 µM (α-amylase; at 500 µM) is reported as 19% and the IC50 (α-amylase; [1]) is reported as greater than 500 µM.

In the case of `O=c1cc(-c2ccccc2)oc2cc(O[C@@H]3O[C@H](CO)[C@@H](O)[C@H](O)[C@H]3O)c(O)c(O)c12` [Oroxin A], the inhibition at 500 µM (α-amylase; at 500 µM) is reported as 60%, the IC50 (α-amylase; [1]) is reported as greater than 250 µM and the inhibition at 500 µM (α-glucosidase) is reported as 10%. The IC50 (α-glucosidase; [2]) was greater than 500 µM.

`C[C@@H]1O[C@@H](Oc2c(-c3ccc(O)c(O)c3)oc3cc(O)cc(O)c3c2=O)[C@H](O)[C@H](O)[C@H]1O` [Quercitrin] gave an inhibition at 500 µM (α-amylase; at 500 µM) of 22%, an IC50 (α-amylase; [1]) greater than 500 µM and an IC50 (α-glucosidase) greater than 500 µM. For the same molecule, the inhibition at 500 µM (α-glucosidase) was 38%.

In the case of `C[C@H]1O[C@H](O[C@H]2[C@H](O)[C@@H](O)[C@@H](O[C@H]3[C@H](O)[C@@H](O)C(O)O[C@@H]3CO)O[C@@H]2CO)[C@H](O)[C@@H](O)[C@@H]1N[C@H]1C=C(CO)[C@@H](O)[C@H](O)[C@H]1O` (stereo partly drawn) [Acarbose, reference compound], the inhibition at 500 µM (α-amylase) is reported as 99%, the inhibition at 500 µM (α-glucosidase) is reported as 49% and the “glucose AUC” value (db/db mice) is reported as 43.0 mmol·h/L. The “reduction of glucose AUC of diabetic mice” value (db/db mice; vs model) was 20.31%.

`O=C(O[C@@H]1Cc2c(O)cc(O)cc2O[C@@H]1c1ccc(O)c(O)c1)c1cc(O)c(O)c(O)c1` [Epicatechin gallate] showed an inhibition at 500 µM (α-amylase; at 500 µM) of 62%, an IC50 (α-amylase; [1]) greater than 250 µM and an IC50 (α-glucosidase) greater than 250 µM. The inhibition at 500 µM (α-glucosidase) was 61%.

Molecule `O=c1c(O[C@@H]2O[C@H](CO)[C@H](O)[C@H](O)[C@H]2O)c(-c2ccc(O)c(O)c2)oc2cc(O)cc(O)c12` [Hyperoside] has an inhibition at 500 µM (α-amylase; at 500 µM) of 28%, an IC50 (α-amylase; [1]) greater than 500 µM and an IC50 (α-glucosidase) greater than 500 µM. For the same molecule, the inhibition at 500 µM (α-glucosidase) was 48%.

Catechin gallate was tested, and the α-Amylase inhibition (α-amylase; at 500 µM) was 82% and the α-Glucosidase inhibition (α-glucosidase; at 500 µM) was 94%.

`O=c1c(O)c(-c2ccc(O)c(O)c2)oc2cc(O[C@@H]3O[C@H](CO)[C@@H](O)[C@H](O)[C@H]3O)c(O)c(O)c12` [Quercetagitrin] was tested, and the inhibition at 500 µM (α-amylase; at 500 µM) was 71%, the IC50 (α-amylase; [1]) was greater than 125 µM and the inhibition at 500 µM (α-glucosidase) was 56%. The IC50 (α-glucosidase; [2]) was greater than 250 µM.

Work on `O=C(O)C1OC(Oc2c(-c3ccc(O)c(O)c3)oc3cc(O)cc(O)c3c2=O)C(O)C(O)C1O` (stereo not drawn) [Quercituron] yielded an inhibition at 500 µM (α-amylase; at 500 µM) of 42%, an IC50 (α-amylase; [1]) greater than 500 µM and an inhibition at 500 µM (α-glucosidase) of 17%. For the same molecule, the IC50 (α-glucosidase; [2]) was greater than 500 µM.

Molecule `O=c1cc(-c2ccc(O)cc2)oc2cc(O)c([C@@H]3O[C@H](CO)[C@@H](O)[C@H](O)[C@H]3O)c(O)c12` [Isovitexin] has an IC50 (α-amylase) greater than 500 µM and an inhibition at 500 µM (α-amylase; at 500 µM) of 43%.
